One experiment relates to Whole Blood. Briefly: In vitro LPS/R848-induced cytokine production assay in whole blood. Format: cell-based, human. As to conditions: Homo sapiens. The method, then: (§1) In Vitro LPS/R848/CpG-Induced Cytokine Production Assays in hPBMC or Whole Blood
(§2) Compounds of the present invention were also studied in in vitro LPS/R848/CpG-induced cytokine production assays. Exemplary protocols follow.
(§3) […] Cells were seeded in a 96-well plate with 130 ul/well of the cell suspension according to the plate map. 9 ul of 30 mM compound solution was added into the wells in the assigned rows, then serial solutions with 4× dilutions were made. That is, add 9 uL of 100% DMSO into each of the rest wells and take 3 uL of compound solution from the one-step higher concentration solution and mix well with the DMSO. For the second compound master plate, 196 uL of the growth medium (no serum media) were added into each of the wells and 4 uL of the compound solution from the first compound master plate was added and mixed with the media. Cells were treated for 0.5 h by adding 20 uL of the compound and the control solutions prepared in the second master plate to each well according to the plate map. […] Plates were sealed with sealing films and the plates were centrifuged at 3000 rpm at 4 degrees C. for 5 min. The supernatants were transferred, and 100 ul of working Capture antibody solution was added to each well. The plates were sealed and incubated overnight at RT. IL-6, IFN-α or TNF-α detection antibody labeled with biotin: Added 100 uL of the Detection Antibody solution to each well. Covered the plate and incubated for 2 h at RT. Added 100 uL of Streptavidin-HRP solution to each well. Covered the plate and incubate for 20 min at RT in dark. Added 100 uL of Substrate Solution to each well. Incubated for 20 min at RT in dark. Added 50 uL of Stop Solution to each well. Gently tapped the plate to ensure thorough mixing. Determined the optical density of each well immediately, using a microplate reader set to 450 nm and also read at 540 nm or 570 nm for correction if wavelength correction is not available.

The next experiment has as its system ABC DLBCL cell lines. Briefly: Cell viability assay, combination with ibrutinib. The class given is cell-based. Here is the method:
Compounds of the present invention were also evaluated in a cell viability assay.

Another experiment has as its system MSU-induced gout. Description: In vivo murine air pouch model of human gout (MSU). To be noted: Balb/c mice, oral twice a day for six days, 10, 30 or 100 mg/kg. The method, then:
In Vivo Murine Air Pouch Model of Human Gout Compounds of the present invention were also evaluated in mice in an in vivo efficacy model for inhibiting monosodium urate (MSU) induced model of gout. An exemplary protocol for this assay follows. A sterile air pouch was created in Balb/c mice. I-67 was administered orally to the mice twice a day for six days at doses of either 10, 30 or 100 mg/kg. Following the last dose the mice were anesthetized and the air pouch was injected with a suspension of monosodium urate (MSU) to induce the inflammatory response. Four hours after the injection the air pouch exudate was collected and the number of white blood cells was measured.

The subject of experiment [1] is collagen-induced arthritis. Description: In vivo murine collagen-induced arthritis model. To be noted: DBA mice, vs vehicle. Here is the method:
In Vivo Murine Collagen-Induced Arthritis Model Compounds of the present invention were also evaluated in mice in an in vivo efficacy model for inhibiting IRAK4-mediated arthritis. An exemplary protocol for this assay follows. Male DBA mice were immunized with collagen on day 0 and day 21 and randomly enrolled into groups upon onset of disease. […] Eight mice were enrolled per group with the exception of the naïve control group, which contained four mice. Day 1 was designated as the first treatment day, and mice were evaluated daily for clinical scores until day 11. The mice were weighed on alternating days.

A further experiment has as its system hPBMC. Briefly: In vitro LPS/R848/CpG/IL-1β-induced cytokine production assay in hPBMC. To be noted: Homo sapiens. Format: cell-based. Here is the method:
as §1, §2, §3

The test system of the next experiment is GCB DLBCL Cells. Description: sensitization of GCB DLBCL cells by BTK knockdown. Format: cell-based. As to conditions: BTK knockdown (FIG. 10).
Where [2] appears, read: R848 1 uM, read-out: TNF-α production IC50.

Data on 1 molecule can be found in patent US20160193216A1 (Nimbus Iris, Inc., priority 2012, published 2016).

SMILES strings stand for the structures. Read-outs that look alike come from different tables or passages of the source.

As usually defined, the IC50 is the concentration that gives 50% inhibition. Consider `NC(=O)C[C@H]1CCc2sc3ncnc(O[C@H]4CC[C@H](N5CCOCC5)CC4)c3c21` [Compound I-67, 2-((R)-4-(((1r,4R)-4-morpholinocyclohexyl)oxy)-6,7-dihydro-5H-cyclopenta[4,5]thieno[2,3-d]pyrimidin-5-yl)acetamide], for which the IC50 was at most 250 nM with Whole Blood (LPS 0.1 ug/mL, read-out: IL-6 production IC50); at least 1000 nM with Whole Blood (R848 1 uM, read-out: IFN-α production IC50); 500 to 1000 nM in the experiment with Whole Blood (setting [2]); 500 to 1000 nM in the experiment with hPBMC (CpG 0.1 uM, read-out: IFN-α production IC50); 250 to 500 nM with hPBMC (CpG 0.5 uM, read-out: TNF-α production IC50); 250 to 500 nM with hPBMC (IL-1β 1 ng/mL, read-out: IL-6 production IC50). Moreover, the IC50 is at most 250 nM with hPBMC (LPS 0.01 ug/mL, read-out: IL-6 production IC50); 250 to 500 nM with hPBMC (LPS 0.01 ug/mL, read-out: TNF-α production IC50); 500 to 1000 nM in the experiment with hPBMC (setting [2]). Also, the “Killing of ABC DLBCL cells in combination with ibrutinib” value in the experiment with ABC DLBCL cell lines was “Synergistic killing”. In addition, the “Efficacy in MSU-induced gout (white blood cell counts in air pouch exudate)” value in the experiment on MSU-induced gout is “efficacious”. The “Clinical scores, collagen-induced arthritis” value in experiment [1] (intraperitoneally 30 mg/kg twice a day) and in experiment [1] (orally 30 mg/kg twice a day) was “efficacious compared to the vehicle” each time. For the same molecule, in the experiment with GCB DLBCL Cells, the “sensitization of GCB DLBCL Cells to compound by BTK Knockdown” value is “lack of sensitization”.
